Columns and labels:
[1] = molecular target: Norepinephrine transporter (Rattus norvegicus, UniProt Q9WTR4); test: Displacement of [3H]-[…] from norepinephrine transporter of rat brain membrane; format: tissue-based
[2] = molecular target: T1, Muscarinic acetylcholine receptor M1 (Rattus norvegicus, UniProt P08482); test: Displacement of [3H]pirenzepine from muscarinic acetylcholine receptor M1 of rat brain membrane
T1 sequence (P08482 whole entry): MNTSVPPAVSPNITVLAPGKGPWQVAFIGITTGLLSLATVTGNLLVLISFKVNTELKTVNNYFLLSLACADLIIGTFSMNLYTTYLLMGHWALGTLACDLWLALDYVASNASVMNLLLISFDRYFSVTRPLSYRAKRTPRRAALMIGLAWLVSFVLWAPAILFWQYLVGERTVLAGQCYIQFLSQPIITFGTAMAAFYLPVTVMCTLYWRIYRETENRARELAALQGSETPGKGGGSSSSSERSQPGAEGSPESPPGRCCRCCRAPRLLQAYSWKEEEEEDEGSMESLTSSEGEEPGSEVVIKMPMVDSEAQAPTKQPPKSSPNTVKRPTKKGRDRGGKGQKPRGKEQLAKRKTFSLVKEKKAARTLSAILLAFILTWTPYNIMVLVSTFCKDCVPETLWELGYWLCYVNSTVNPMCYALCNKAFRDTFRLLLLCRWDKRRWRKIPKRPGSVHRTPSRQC

[3] = molecular target: T2, Sodium-dependent serotonin transporter (Rattus norvegicus, UniProt P31652); test: Displacement of [3H]-citalopram from serotonin transporter of rat brain membrane; format: tissue-based
Rattus norvegicus = organism: Rattus norvegicus; test: Relative affinity for dopamine transporter and muscarinic acetylcholine M1 receptor
[4] = molecular target: Monoamine transporters; Norepininephrine & dopamine (Rattus norvegicus) (UniProt P23977+Q9WTR4); test: Relative affinity for dopamine and norepinephrine transporters; format: protein assay
[5] = molecular target: Sodium-dependent dopamine transporter (Rattus norvegicus, UniProt P23977); test: Displacement of [3H]WIN-35428 from dopamine transporter of rat brain membrane; format: tissue-based
[6] = molecular target: Monoamine transporters; serotonin & dopamine (Rattus norvegicus) (UniProt P31652+P23977); test: Relative affinity for dopamine and serotonin transporters; format: protein assay
[7] = molecular target: T2, Sodium-dependent serotonin transporter; test: Displacement of [3H]citalopram from serotonin transporter of rat brain membrane; format: tissue-based

Monoamine transporters; serotonin & dopamine (Rattus norvegicus), sequence (P23977 whole entry, looked up): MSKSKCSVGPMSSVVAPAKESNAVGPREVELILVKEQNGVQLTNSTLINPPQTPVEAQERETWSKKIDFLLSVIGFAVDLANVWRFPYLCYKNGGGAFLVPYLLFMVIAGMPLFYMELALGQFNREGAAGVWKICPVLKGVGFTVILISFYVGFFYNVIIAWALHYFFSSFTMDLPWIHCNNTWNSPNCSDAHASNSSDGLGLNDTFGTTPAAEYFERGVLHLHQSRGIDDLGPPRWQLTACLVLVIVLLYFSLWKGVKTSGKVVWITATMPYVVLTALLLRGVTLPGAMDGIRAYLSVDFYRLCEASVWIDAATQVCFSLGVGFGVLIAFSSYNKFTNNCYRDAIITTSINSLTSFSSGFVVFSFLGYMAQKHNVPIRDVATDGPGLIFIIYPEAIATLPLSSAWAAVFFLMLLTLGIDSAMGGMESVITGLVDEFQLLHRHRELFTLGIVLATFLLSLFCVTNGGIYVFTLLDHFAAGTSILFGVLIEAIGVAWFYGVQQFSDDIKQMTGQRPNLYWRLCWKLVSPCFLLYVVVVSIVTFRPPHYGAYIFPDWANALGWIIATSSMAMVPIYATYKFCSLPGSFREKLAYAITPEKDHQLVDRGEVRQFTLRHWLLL
Monoamine transporters; serotonin & dopamine (Rattus norvegicus), sequence (P31652 whole entry, looked up): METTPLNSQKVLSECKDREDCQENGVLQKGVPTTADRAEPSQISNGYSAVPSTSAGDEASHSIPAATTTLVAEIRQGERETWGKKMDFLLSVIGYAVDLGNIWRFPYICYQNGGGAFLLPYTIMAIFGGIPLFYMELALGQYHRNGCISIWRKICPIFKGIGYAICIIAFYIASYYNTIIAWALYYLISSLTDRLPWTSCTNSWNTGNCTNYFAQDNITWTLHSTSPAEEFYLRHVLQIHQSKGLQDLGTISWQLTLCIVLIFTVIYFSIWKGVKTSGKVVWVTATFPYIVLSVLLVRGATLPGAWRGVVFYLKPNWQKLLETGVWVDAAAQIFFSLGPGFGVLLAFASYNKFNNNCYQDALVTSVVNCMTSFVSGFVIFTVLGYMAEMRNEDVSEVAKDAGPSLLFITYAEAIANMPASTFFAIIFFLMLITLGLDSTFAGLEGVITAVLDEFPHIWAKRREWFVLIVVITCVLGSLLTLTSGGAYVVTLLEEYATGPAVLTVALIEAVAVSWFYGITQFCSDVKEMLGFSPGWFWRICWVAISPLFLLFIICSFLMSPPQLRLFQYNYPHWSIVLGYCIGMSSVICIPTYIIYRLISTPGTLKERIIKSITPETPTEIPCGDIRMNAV
Sodium-dependent dopamine transporter, sequence (P23977 whole entry): as the sequence (P23977 whole entry, looked up) above
T2 sequence (P31652 whole entry): as the sequence (P31652 whole entry, looked up) above
Norepinephrine transporter, sequence (Q9WTR4 whole entry): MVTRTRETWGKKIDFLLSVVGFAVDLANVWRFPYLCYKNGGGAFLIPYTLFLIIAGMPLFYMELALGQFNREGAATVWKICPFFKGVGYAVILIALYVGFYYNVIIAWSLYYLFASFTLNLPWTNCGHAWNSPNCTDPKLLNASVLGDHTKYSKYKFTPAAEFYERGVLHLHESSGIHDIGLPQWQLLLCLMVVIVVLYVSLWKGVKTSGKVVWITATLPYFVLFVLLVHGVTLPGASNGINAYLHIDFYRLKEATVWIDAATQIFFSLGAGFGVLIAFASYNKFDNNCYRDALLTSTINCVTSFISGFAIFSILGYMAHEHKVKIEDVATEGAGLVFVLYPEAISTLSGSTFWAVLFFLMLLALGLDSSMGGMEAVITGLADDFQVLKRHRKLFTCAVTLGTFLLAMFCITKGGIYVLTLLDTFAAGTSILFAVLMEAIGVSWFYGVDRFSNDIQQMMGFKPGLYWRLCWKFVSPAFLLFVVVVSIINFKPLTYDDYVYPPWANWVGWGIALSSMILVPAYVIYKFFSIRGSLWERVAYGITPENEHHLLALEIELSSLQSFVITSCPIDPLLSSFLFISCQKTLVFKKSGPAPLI

Compound	Ki [1]	Ki [2]	Ki [3]	Selectivity (Rattus norvegicus)	Selectivity [4]	Ki [5]	Selectivity [6]	Ki [7]
COS(=O)(=O)[C@H]1CC2C[C@H](OC(c3ccc(F)cc3)c3ccc(F)cc3)CC1N2C (stereo partly specified)	6880 nM	617 nM	13800 nM	8	85	81 nM	170	
CC(C)COC(=O)[C@H]1CC2C[C@H](OC(c3ccc(F)cc3)c3ccc(F)cc3)CC1N2C (stereo partly specified)	6610 nM	723 nM	7960 nM	5	45	148 nM	54	
O=C(Oc1ccccc1)[C@H]1CC2C[C@H](OC(c3ccc(F)cc3)c3ccc(F)cc3)CC1N2 (stereo partly specified)	3170 nM	8430 nM	4440 nM	48	18	175 nM	25	
CN1C2CCC1CC(OC(c1ccc(F)cc1)c1ccc(F)cc1)C2 (stereo unspecified) [DIFLUOROBENZTROPINE]	844 nM							
CN1C2CC(OC(c3ccc(F)cc3)c3ccc(F)cc3)CC1[C@H](O)C2 (stereo partly specified)	6390 nM	27 nM	11700 nM	1	204	31.3 nM	374	
COC(=O)[C@@H]1C2CC[C@@H](C[C@@H]1OC(=O)c1ccccc1)N2C (single isomer, unassigned) [COCAINE]		61400 nM						
CCOC(=O)[C@H]1CC2C[C@H](OC(c3ccc(F)cc3)c3ccc(F)cc3)CC1N2C (stereo partly specified)	3720 nM	142 nM	14000 nM	2	49	75.4 nM	186	
CN1C2CC(OC(c3ccc(F)cc3)c3ccc(F)cc3)CC1[C@@H](O)C2 (stereo partly specified)	1300 nM	48.3 nM		8	207	6.28 nM	1450	9090 nM
CN1C2C[C@H](OC(c3ccc(F)cc3)c3ccc(F)cc3)CC1[C@@H](C(=O)Oc1ccccc1)C2 (stereo partly specified)	1370 nM	552 nM	3730 nM	5	13	107 nM	35	
CC(C)OC(=O)[C@H]1CC2C[C@H](OC(c3ccc(F)cc3)c3ccc(F)cc3)CC1N2C (stereo partly specified)	10200 nM	784 nM	14800 nM	5	68	151 nM	98	
COC(=O)[C@H]1CC2C[C@H](OC(c3ccc(F)cc3)c3ccc(F)cc3)CC1N2C (stereo partly specified)	6910 nM	432 nM	16500 nM	8	121	57.1 nM	289	
CN1C2C[C@H](OC(c3ccc(F)cc3)c3ccc(F)cc3)CC1[C@@H](C(=O)OCCc1ccccc1)C2 (stereo partly specified)	5690 nM	3480 nM	7960 nM	20	33	171 nM	47	
CN1C2C[C@H](OC(c3ccc(F)cc3)c3ccc(F)cc3)CC1[C@@H](C(=O)OCc1ccccc1)C2 (stereo partly specified)	6210 nM	2270 nM	5850 nM	19	52	119 nM	49	
CN1C2CC(OC(c3ccc(F)cc3)c3ccc(F)cc3)CC1[C@@H](C(=O)O)C2 (stereo partly specified)	1380 nM	46.8 nM	8290 nM	8	238	5.81 nM	1430	
